# Tests used:
# Type in all cases: in vivo, nude mice (Balb/c nu/nu)
# [1] = Tissue concentrations by ICP-AES after 0.1 mmol/kg i.v. in nude mice with subcutaneously implanted colon cancers (HT29, WiDr); conditions: within 24 hours
# Procedure: a) 9 nude mice (Balb/c nu/nu) with subcutaneously implanted colon cancers (HT29, WiDr) were each administered by i.v. 0.1 mmol/kg of the mesoporphyrin derivative of example 1b (10 mmol/l dissolved in bidistilled water, pH 7.2, 37° C.). After 0.5, 3 and 24 hours the animals were killed and dissected. The tissue concentrations were determined after corresponding working-up (HNO3 conc.) by ICP-AES and calculated for % of the administered dose per gram of tissue net weight.
# e) 9 nude mice (Balb/c nu/nu) with subcutaneously implanted colon cancers (HT29 and WiDr) were each administered by i.v. 0.1 mmol/kg of the deuteroporphyrin derivative of the compound according to example 1c (10 mmol/l dissolved in bidistilled water, pH 7.2, 37° C.). After 0.5, 3 and 24 hours, the animals were killed and dissected. The tissue concentrations were determined after corresponding working-up (HNO3 conc.) by ICP-AES and calculated for % of the administered dose per gram of tissue net weight. Moreover, tissue relaxation times T1 and T2 were determined (Bruker minispec pc 120).
# 9 nude mice (Balb/c nu/nu) with subcutaneously implanted colon cancers (HT29, WiDr) were each administered by i.v. 0.1 mmol/kg of the mesoporphyrin derivative of example 8e (10 mmol/l dissolved in bidistilled water, pH 7.2, 37° C.). After 0.5, 3 and 24 hours, the animals were killed and dissected. The tissue concentrations were determined after corresponding working-up (HNO3 conc.) by ICP-AES and calculated for % of the administered dose per gram of tissue net weight.
# 9 nude mice (Balb/c nu/nu) with subcutaneously implanted colon cancers (HT29, WiDr) were each administered by i.v. 0.1. mmol/kg of the mesoporphyrin derivative of example 16f (10 mmol/l dissolved in bidistilled water, pH 7.2, 37° C.). After 0.5 and 3 hours the animals were killed and dissected. The tissue concentrations were determined after corresponding working-up (HNO3 conc.) by ICP-AES and calculated for % of the administered dose per gram of tissue net weight.
# 9 nude mice (Balb/c nu/nu) with subcutaneously implanted colon cancers (HT29, WiDr) were each administered by i.v. 0.1 mmol/kg of the mesoporphyrin derivative of example 18d (10 mmol/l dissolved in bidistilled water, pH 7.2, 37° C.). After 0.5 and 3 hours, the animals were killed and dissected. The tissue concentrations were determined after corresponding working-up (HNO3 conc.) by ICP-AES and calculated for % of the administered dose per gram of tissue net weight.
# 9 nude mice (Balb/c nu/nu) with subcutaneously implanted colon cancers (HT29, WiDr) were each administered by i.v. 0.1 mmol/kg of the mesoporphyrin derivative of example 19e (10 mmol/l dissolved in bidistilled water, pH 7.2, 37° C.). After 0.5, 3 and 24 hours, the animals were killed and dissected. The tissue concentrations were determined after corresponding working-up (HNO3 conc.) by ICP-AES and calculated for % of the administered dose per gram of tissue net weight.
# [2] = tested on: HT29 and WiDr colon cancers; test: Enhancement (signal intensity change, NMR imaging) in tissues with HT29/WiDr tumors, Example 22 Table 2
# [3] = tested on: HT29 and WiDr colon cancer; test: Signal intensity change in tissues of tumor-bearing (HT29 and WiDr colon cancer) nude mice, example 2c, 0.05 mmol/kg; conditions: 0.05 mmol/kg i.v.; for enhancement, HT29 / enhancement, Kidneys / enhancement, Liver / enhancement, Muscle / enhancement, WiDr: time 0 = 100
# Procedure: On a Bruker Biospec nuclear spin tomograph (2.35 Tesla), the signal intensity change in various tissues of tumor-bearing (HT29 and WiDr colon cancer) nude mice (Balb/c nu/nu) was studied after i.v. administration of 0.05 mmol/kg of the compound according to example 2c (10 mmol/l, pH 7.2; 37° C. in bidistilled water). The measurement takes place with a multi slice single echo sequence (MSSE). Imaging parameters: TR: 400 ms, TE: 30 ms, layer thickness: 4 mm, number of averages: 4/slice, matrix 256^2. After a preliminary image, 0.05 mmol/kg of the substance was administered and the signal intensity change (relative to an internal standard) was studied 5, 30, 60, 120 and 180 minutes
substance,measurement,setting,value
"13,17-Bis-(15-carboxylato-6-oxo-8,11,14-tris-(carboxylatomethyl)-5,8,11,14-tetraazapentadecyl]-3,8-diethyl-2,7,12,18-tetramethylporphyrin, digadolinium complex, disodium salt [Example 19e]","decrease of tissue concentration except liver, relative to 0.5 hour p.i.",[1],5-20 factor
"N,N'-Bis[9-carboxylato-2,5-bis(carboxylatomethyl)-8-(ethoxycarboxymethyl-2,5,8-triazanonyl-carbamoyl]-mesoporphyrin-IX-13,17-diamide, digadolinium complex [Example 1b]","enhancement, HT29",[2]; 5 min,1.36
same,"enhancement, Kidneys",[2]; 5 min,2.89
same,"enhancement, Liver",[2]; 5 min,1.43
same,"enhancement, Muscle",[2]; 5 min,1.41
same,"enhancement, WiDr",[2]; 5 min,1.16
same,"signal intensity change, liver tissue",[2]; 5 minutes p.i.,marked signal intensity increase
same,"enhancement, HT29",[2]; 15 min,1.49
same,"enhancement, Kidneys",[2]; 15 min,2.70
same,"enhancement, Liver",[2]; 15 min,1.43
same,"enhancement, Muscle",[2]; 15 min,1.41
same,"enhancement, WiDr",[2]; 15 min,1.16
same,"enhancement, HT29",[2]; 30 min,1.54
same,"enhancement, Kidneys",[2]; 30 min,2.65
same,"enhancement, Liver",[2]; 30 min,1.40
same,"enhancement, Muscle",[2]; 30 min,1.39
same,"enhancement, WiDr",[2]; 30 min,1.18
same,"enhancement, HT29",[2]; 45 min,1.55
same,"enhancement, Kidneys",[2]; 45 min,2.79
same,"enhancement, Liver",[2]; 45 min,1.42
same,"enhancement, Muscle",[2]; 45 min,1.40
same,"enhancement, WiDr",[2]; 45 min,1.25
same,"enhancement, HT29",[2]; 60 min,1.59
same,"enhancement, Kidneys",[2]; 60 min,2.56
same,"enhancement, Liver",[2]; 60 min,1.38
same,"enhancement, Muscle",[2]; 60 min,1.29
same,"enhancement, WiDr",[2]; 60 min,1.05
same,"enhancement, HT29",[2]; 75 min,1.97
same,"enhancement, Kidneys",[2]; 75 min,2.53
same,"enhancement, Liver",[2]; 75 min,1.51
same,"enhancement, Muscle",[2]; 75 min,1.47
same,"enhancement, WiDr",[2]; 75 min,1.23
same,"maximum enhancement, liver",[2]; 75 minutes p.i.,+50%
same,"maximum enhancement, tumor",[2]; 75 minutes p.i.,+100%
same,"enhancement, HT29",[2]; 90 min,1.51
same,"enhancement, Kidneys",[2]; 90 min,2.40
same,"enhancement, Liver",[2]; 90 min,1.43
same,"enhancement, Muscle",[2]; 90 min,1.50
same,"enhancement, WiDr",[2]; 90 min,1.28
same,"enhancement, HT29",[2]; 120 min,1.64
same,"enhancement, Kidneys",[2]; 120 min,2.15
same,"enhancement, Liver",[2]; 120 min,1.47
same,"enhancement, Muscle",[2]; 120 min,1.34
same,"enhancement, WiDr",[2]; 120 min,1.22
same,"enhancement, HT29",[2]; 24 hours,1.05
same,"enhancement, Kidneys",[2]; 24 hours,1.51
same,"enhancement, Liver",[2]; 24 hours,1.19
same,"enhancement, Muscle",[2]; 24 hours,1.24
same,"enhancement, WiDr",[2]; 24 hours,1.64
same,"signal intensity change, tumor",[2]; after 30 minutes,marked signal intensity increase
same,"signal intensity change, kidneys","[2]; mouse, in vivo",stronger signal intensity change
same,"signal intensity change, muscle",[2]; reference tissue,only a small change
"N,N'-Bis[13-carboxylato-4-oxo-6,8,12-tris-(carboxylatomethyl)-3,6,9,12-tetraazatridecyl]-mesoporphyrin--IX-3,17-diamide, digadolinium complex, disodium salt [Example 2c]",time of greatest signal intensity difference,[3],2 hours p.i. or 3 hours p.i.
same,"enhancement, HT29",[3]; 5 min,171 ± 14
same,"enhancement, Kidneys",[3]; 5 min,169 ± 45
same,"enhancement, Liver",[3]; 5 min,173 ± 31
same,"enhancement, Muscle",[3]; 5 min,143 ± 23
same,"enhancement, WiDr",[3]; 5 min,165 ± 39
same,"signal intensity change, liver tissue and both tumors",[3]; 5 minutes p.i.,marked signal intensity increase
same,"enhancement, HT29",[3]; 30 min,169 ± 14
same,"enhancement, Kidneys",[3]; 30 min,211 ± 33
same,"enhancement, Liver",[3]; 30 min,157 ± 30
same,"enhancement, Muscle",[3]; 30 min,157 ± 29
same,"enhancement, WiDr",[3]; 30 min,170 ± 32
same,"enhancement, HT29",[3]; 60 min,168 ± 12
same,"enhancement, Kidneys",[3]; 60 min,207 ± 31
same,"enhancement, Liver",[3]; 60 min,170 ± 16
same,"enhancement, Muscle",[3]; 60 min,120 ± 8
same,"enhancement, WiDr",[3]; 60 min,153 ± 33
same,"enhancement, HT29",[3]; 120 min,178 ± 32
same,"enhancement, Kidneys",[3]; 120 min,191 ± 37
same,"enhancement, Liver",[3]; 120 min,179 ± 37
same,"enhancement, Muscle",[3]; 120 min,126 ± 10
same,"enhancement, WiDr",[3]; 120 min,153 ± 0
same,"enhancement, HT29",[3]; 180 min,136 ± 23
same,"enhancement, Kidneys",[3]; 180 min,136 ± 25
same,"enhancement, Liver",[3]; 180 min,167 ± 7
same,"enhancement, Muscle",[3]; 180 min,112 ± 9
same,"enhancement, WiDr",[3]; 180 min,117 ± 33
same,"signal intensity change, muscle",[3]; reference tissue,only a small change
same,"signal intensity change, kidneys",[3]; up to 2 hours p.i.,even stronger signal intensity change
